Results reported in ChEMBL document CHEMBL1154505, “Nakijiquinones E and F, new dimeric sesquiterpenoid quinones from marine sponge” (Bioorg Med Chem, 2009).

How the values were obtained:
Assay type in all cases: functional, cell-based
L1210 = test: Cytotoxicity against mouse L1210 cells
P388 = test: Cytotoxicity against mouse P388 cells
KB = test: Cytotoxicity against human KB cells

Measured: IC50

C=C1CCC[C@H]2[C@](C)(Cc3cc(C(=O)OC)c(O)c(NC4=CC(=O)C(O)=C(C[C@]5(C)[C@@H](C)CC[C@]6(C)C(C)=CCC[C@@H]56)C4=O)c3O)[C@@H](C)CC[C@]12C [NAKIJIQUINONE E]
> 10 µg/mL: all assays above

COC(=O)c1cc(C[C@]2(C)[C@@H](C)CC[C@]3(C)C(C)=CCC[C@@H]23)c(O)c(NC2=CC(=O)C(O)=C(C[C@]3(C)[C@@H](C)CC[C@]4(C)C(C)=CCC[C@@H]34)C2=O)c1O [NAKIJIQUINONE F]
> 10 µg/mL: all assays above
